Assay results reported in patent US5117830A, “Method of determining viability of tissue” (priority 1990, dated 1992).
Where two headings read alike, the source gives them in different places. Blank lines part the entries; values can stand above or below the compound they belong to.

What was measured:
A2 adenosine receptors = assay: Antagonism of adenosine agonists in decreasing contractile tone of guinea pig taenia caecum (A2); details: for antagonism of the effects of adenosine agonists in relaxing the taenia caecum: guinea pig taenia caecum; for selectivity for A1 adenosine receptors: lack of competitive antagonism in taenia caecum
Protocol: Taenia from the guinea pig caecum were cut into lengths of 1.5-2 cm. The tissues were suspended in a 20 ml organ bath containing de Jalon's solution that was gassed with 95% O2 +5% CO2 and maintained at 31° C. The resting tension was 1.5 g. The contractile response was measured isotonically.
(§1) The ability of the compounds to antagonize the effects of agonists was analyzed using modified Schild plots.

[1] = tested on: rat heart rate and blood pressure; assay: In vivo rat heart rate and blood pressure
Protocol: Rats were anesthetized with urethan and blood pressure was monitored via a carotid cannula. Drug injections were made intravenously through a jugular cannula. Blood pressure, EGC, and heart rate were recorded on a Grass polygraph.

[2] = tested on: rat cortical A1 receptors; assay: Displacement of [^3 H]-CHA from rat cortical A1 receptors; assay type: binding; details: Table 4
Protocol: Varying concentrations of test compounds were incubated with the appropriate radioligand and membrane source for 1 hr at room temperature.
Assays were terminated by filtration over Whatman GF/B filters that had been pre-soaked with 0.1% polyethyleneimine using a 24 port Brandell cell hawester. The filters were washed three times with 3 ml of ice cold buffer and transferred to plastic scintillation vials to which 4 ml of Beckman Ready-Protein scintillation cocktail was added. The tubes were shaken and counted in a Beckman 3801 scintillation counter that converted cpm to dpm.
Data were analyzed by utilizing the Ligand commercial computer program (Munson and Rodbard, 1980).
Male Sprague Dawley rats were killed by decapitation and the brains removed. The cerebral cortices were homogenized in 50 mm Tris; 2mm MgCl2 (pH 7.4), and centrifuged at 40,000×g for 10 minutes. […] The homogenate was centrifuged, washed once, resuspended to a protein concentration of 5-10 mg/ml and frozen at -70° C. until use.

A1 adenosine receptors = molecular target: T1, A1 adenosine receptors (Cavia porcellus, UniProt P47745); assay: Antagonism of adenosine agonists in reducing force of contraction of guinea pig atrium (A1); details: for competitive antagonism at adenosine receptors in the atria / basal force of contraction in the atria: guinea pig atria
T1 construct: The left atria from male guinea pigs were isolated; from tissue; host or cells: guinea pig left atrium (whole tissue in organ bath)
T1 sequence (P47745 1-326): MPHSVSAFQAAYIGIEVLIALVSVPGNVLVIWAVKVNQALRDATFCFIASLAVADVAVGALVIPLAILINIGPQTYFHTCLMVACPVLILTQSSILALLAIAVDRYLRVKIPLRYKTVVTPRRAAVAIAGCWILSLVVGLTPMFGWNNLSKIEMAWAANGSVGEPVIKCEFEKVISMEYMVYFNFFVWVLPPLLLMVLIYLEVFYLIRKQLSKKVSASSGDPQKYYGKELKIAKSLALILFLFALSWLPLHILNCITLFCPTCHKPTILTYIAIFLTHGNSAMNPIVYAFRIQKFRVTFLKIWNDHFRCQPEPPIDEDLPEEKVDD
Protocol: The left atria from male guinea pigs were isolated, suspended between two punctate electrodes, and placed in a 20 ml organ bath that contained Krebs-Hensileit solution that was continuously gassed with 95% O2 +5% CO2 and maintained at 31° C. The resting tension was one gram. The atria were stimulated electrically at 1 Hz, 1 msec duration pulses at supramaximal voltage. The force of contraction was recorded isometrically.
as §1

adenosine receptors = details: cited from earlier work
patients = details: in vivo; cited from earlier work
coronary artery = details: cited from earlier work
[3] = cited from earlier work
A2 receptors [4] = details: vs N^6 -substituted analogs; cited from earlier work
A1 receptors [5] = molecular target: T2, A1 receptors (Rattus norvegicus, UniProt P25099); assay: Inhibition of N^6 -R-[^3 H]-phenylisopropyladenosine binding in rat brain membranes; parameters: rat brain membranes; from tissue; host or cells: rat brain (membranes); details: for Ki: (D) Rat Brain Membranes, read-out: Ki vs [^3 H] PIA (Binding), A1 Effects
T2 sequence (P25099 1-326): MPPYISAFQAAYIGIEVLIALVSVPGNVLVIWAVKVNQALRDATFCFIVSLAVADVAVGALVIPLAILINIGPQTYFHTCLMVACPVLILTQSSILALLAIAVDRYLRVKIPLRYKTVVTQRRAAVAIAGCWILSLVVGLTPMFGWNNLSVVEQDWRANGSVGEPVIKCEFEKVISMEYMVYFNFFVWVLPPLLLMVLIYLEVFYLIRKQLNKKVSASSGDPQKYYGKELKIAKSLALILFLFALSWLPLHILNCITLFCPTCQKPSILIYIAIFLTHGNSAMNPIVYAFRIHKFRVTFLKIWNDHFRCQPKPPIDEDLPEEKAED
Protocol: (§2) For activity at A1 receptors, compounds were tested as inhibitors of the binding of N^6 -R-[^3 H]-Phenylisopropyladenosine in rat brain membranes and for their ability to prevent R-PIA-induced inhibition of adenylate cyclase in rat fat cell membranes.

A2 receptors [6] = molecular target: T3, A2 receptors (Homo sapiens, UniProt P29274); assay: Antagonism of NECA-stimulated adenylate cyclase in human platelet membranes; assay type: biochemical
T3 construct: membranes of human platelets; from tissue; host or cells: human platelets (membranes)

A1 receptors [7] = molecular target: T2, A1 receptors; assay: Prevention of R-PIA-induced inhibition of adenylate cyclase in rat fat cell membranes; assay type: biochemical
Protocol: as §2

A2 receptors [8] = molecular target: T4, A2 receptors (Rattus norvegicus, UniProt P30543); assay: Antagonism of NECA-stimulated adenylate cyclase in rat PC12 membranes; assay type: biochemical; details: read-out: KB vs NECA Stimulation (Adenylate Cyclase), A2 Effects; (B) Rat PC12 Membranes
T4 construct: NECA-stimulated adenylate cyclase
Protocol: as §2, with “membranes. For activity at A2 receptors, compounds were tested as antagonists of NECA-stimulated adenylate cyclase in membranes of human platelets and rat PC12 cells.” for “membranes.”

[9] = anesthetized rats, high doses of adenosine
[10] = prior administration, NECA as agonist

T3 sequence (P29274 whole entry): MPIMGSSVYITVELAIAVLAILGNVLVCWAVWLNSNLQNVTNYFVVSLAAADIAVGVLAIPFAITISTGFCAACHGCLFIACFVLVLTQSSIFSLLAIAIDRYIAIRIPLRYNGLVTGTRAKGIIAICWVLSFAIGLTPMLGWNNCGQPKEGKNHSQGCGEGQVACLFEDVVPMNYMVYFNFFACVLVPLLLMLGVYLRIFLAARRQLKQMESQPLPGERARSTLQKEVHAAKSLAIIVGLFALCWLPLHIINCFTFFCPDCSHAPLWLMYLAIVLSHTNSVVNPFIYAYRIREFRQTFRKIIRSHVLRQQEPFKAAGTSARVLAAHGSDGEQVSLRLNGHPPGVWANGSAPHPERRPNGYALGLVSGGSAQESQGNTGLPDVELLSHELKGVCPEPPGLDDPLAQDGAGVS
T4 sequence (P30543 whole entry): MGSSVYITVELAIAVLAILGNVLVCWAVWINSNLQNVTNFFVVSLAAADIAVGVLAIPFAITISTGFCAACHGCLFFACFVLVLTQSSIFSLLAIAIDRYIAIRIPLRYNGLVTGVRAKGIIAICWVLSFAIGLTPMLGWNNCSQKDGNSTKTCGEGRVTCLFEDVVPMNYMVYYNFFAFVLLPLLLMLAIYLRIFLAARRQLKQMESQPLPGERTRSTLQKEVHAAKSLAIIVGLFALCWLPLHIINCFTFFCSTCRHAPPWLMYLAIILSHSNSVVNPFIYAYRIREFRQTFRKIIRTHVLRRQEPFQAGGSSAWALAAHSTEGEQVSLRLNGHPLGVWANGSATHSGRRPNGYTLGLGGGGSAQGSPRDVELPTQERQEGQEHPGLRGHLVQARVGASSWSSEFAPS

Compound: Cn1cnc2c(N[C@H]3C[C@H]4CC[C@@H]3C4)ncnc21 (relative stereo) [compound 0861, N^6-(endo-2-norbornyl)-9-MA]
- antagonism of the effects of adenosine agonists in relaxing the taenia caecum (A2 adenosine receptors): did not competitively antagonize
- selectivity for A1 adenosine receptors (A2 adenosine receptors): selective for A1 adenosine receptors
- effects of subsequently administered adenosine on all parameters (blood pressure, heart rate, P-R interval) ([1]; anesthetized rats, antagonist given before adenosine): attenuated the effects of subsequently administered adenosine on all parameters measured
- adenosine-induced heart block [1, 9]: substantially reduced
- NECA-induced decrease in blood pressure [1, 10]: minimally affecting the NECA-induced decrease in blood pressure
- effects of NECA on the heart [1, 10]: attenuated the effects of NECA on the heart
- selectivity in vivo ([1]; rat): cardioselective adenosine receptor antagonist in vivo
- selectivity for A1 receptors over A2 receptors [2]: 170 fold
- A1 /A2 ([2]; ratio of Ki values): 5.89 × 10^-3
- selectivity towards the A1 adenosine receptor / rank of potency (A1 adenosine receptors; Table 2 compounds): the most potent antagonist
- competitive antagonism at adenosine receptors in the atria (A1 adenosine receptors): competitive antagonists

Compound: Cn1c(=O)c2[nH]c(-c3ccccc3)nc2n(C)c1=O [8-phenyltheophylline (8-PT), 8-phenyltheophylline, reference compound]
- antagonism of the effects of adenosine agonists in relaxing the taenia caecum (A2 adenosine receptors): did antagonize the effects of agonists at low concentrations
- sensitization of the tissue (A2 adenosine receptors; high concentrations, larger response to agonist): Sensitization is also observed when using high concentrations
- receptor selectivity (adenosine receptors): non-selective adenosine receptor antagonist

Compound: Nc1ncnc2c1ncn2[C@@H]1O[C@H](CO)[C@@H](O)[C@H]1O [Adenosine, reference compound]
- side effects (patients): a number of cardiovascular, respiratory, central nervous system, and gastrointestinal side effects
- heart block [1, 9]: At high doses, adenosine causes heart block
- P-R interval of the ECG ([1]; anesthetized rats, intravenous): concomitant increase in the P-R interval
- blood pressure ([1]; anesthetized rats, intravenous): dose dependent decrease in blood pressure
- heart rate ([1]; anesthetized rats, intravenous): dose dependent decrease in blood pressure and heart rate
- heart rate, ventilation and airway resistance (coronary artery): increases heart rate, and stimulates ventilation but does not alter airway resistance
- vasodilation / coronary blood flow (coronary artery): potent vasodilator, except in the kidney
- half-life ([3]; in vivo): less than two

Compound: OCCN(CCO)c1nc(N2CCCCC2)c2nc(N(CCO)CCO)nc(N3CCCCC3)c2n1 [Dipyridamole, dipyridamole]
- side effects (patients): rare but potentially serious side effects which include myocardial ischemia, cardiac arrhythmia, and sudden death
- vasodilation / coronary blood flow (coronary artery): increase in coronary blood flow
- half-life compared with adenosine ([3]; dipyridamole): significantly longer half-life

Compound: CCNC(=O)[C@H]1O[C@@H](n2cnc3c(N)ncnc32)[C@H](O)[C@@H]1O [NECA, 5'-N-ethylcarboxamido-adenosine]
- potency at A2 receptors (A2 receptors [4]): more potent than N^6 -substituted analogs

Compound: Cn1cnc2c(NC3CCCCC3)ncnc21 [N^6 -Cyclohexyl-9-MA]
- Ki (A1 receptors [5]): 940 nM

Compound: Cn1c(=O)c2c(ncn2C)n(C)c1=O [caffeine]
- antagonism at adenosine receptors (adenosine receptors): best known antagonists at adenosine receptors

Compound: N^6 -Methylcylopentyl-9-MA
- Ki (A1 receptors [5]): 2500 nM
- Kb (A2 receptors [6]; read-out: KB vs NECA Stimulation (Adenylate Cyclase), A2 Effects, (A) Human Platelet Membranes): 45 µM
- Kb (A2 receptors [8]): 56 µM
- Kb (A1 receptors [7]; (C) Rat Fat Cell Membranes, read-out: KB vs PIA INHIBITION (Adenylate Cyclase), A1 Effects): 9 µM

The next lines start with the values.

- basal force of contraction in the atria (A1 adenosine receptors): increases in basal force of contraction
- competitive antagonism at adenosine receptors in the atria (A1 adenosine receptors): competitive antagonists
Compound: CCC(Cc1cccs1)Nc1ncnc2c1ncn2C (stereo not drawn) [N^6-1-(2-thienyl)-2-butyl-9-MA]

- antagonism of the effects of adenosine agonists in relaxing the taenia caecum (A2 adenosine receptors): did not competitively antagonize
- selectivity for A1 adenosine receptors (A2 adenosine receptors): selective for A1 adenosine receptors
- basal force of contraction in the atria (A1 adenosine receptors): increases in basal force of contraction
- competitive antagonism at adenosine receptors in the atria (A1 adenosine receptors): competitive antagonists
Compound: CCC(CC)Nc1ncnc2c1ncn2C [N^6-3-Pentyl-9-MA]

- antagonism of the effects of adenosine agonists in relaxing the taenia caecum (A2 adenosine receptors): did not competitively antagonize
- selectivity for A1 adenosine receptors (A2 adenosine receptors): selective for A1 adenosine receptors
- Ki (A1 receptors [5]): 540 nM
- potency relative to 9-methyladenine at A1 receptors (A1 receptors [5]; A1 receptors): at least 100 fold
- potency relative to 9-methyladenine at A2 receptors (A2 receptors [6]; human platelet assay): fivefold more potent
- competitive antagonism at adenosine receptors in the atria (A1 adenosine receptors): competitive antagonists
Compound: Cn1cnc2c(NC3CCCC3)ncnc21 [compound 0840, N^6-cyclopentyl-9-MA]

- Kb (A1 receptors [7]): 23 µM
Compound: C[C@@H](Cc1ccccc1)Nc1ncnc2c1ncn2C [compound 0986, N^6 -S-1-phenyl-2-propyl-9-MA]
